Entries after “also recorded” stand apart in the source; their conditions may differ.
Legend:
WT cortical networks = assay: MEA recordings of WT cortical cultures (spike rate, NAP/NIP duration from ASDR plot); type: cell-based, mice
Method: (§1) Primary dissociated cortical neurons were prepared from postnatal day 0 wild type and Shank3 KO mice (Peca et al., 2011) from littermates using standard protocols as described before (Ramamoorthi et al., 2011). For micro-electrode array recordings, dissociated neurons were plated onto substrate embedded electrodes pre-coated with polyethyleneimine (PEI) (Sigma-Aldrich, 0.1%) plus laminin (Life Technologies, 20 μg/ml) at a density of 3×10^3 cells/mm^2. For biochemical experiments, 3×10^5 cells were plated onto 1 well of the 24-well plate pre-coated with 20 μg/ml Poly-D-lysine (PDL, Sigma-Aldrich) and 4 μg/ml laminin (Life Technologies). The cultures were treated with AraC (Sigma-Aldrich, 1 μg/ml) at day 5 in vitro, and maintained up to 21 days after plating.
(§2) The electrical activity of cultured neurons was recorded using MEA2100-Systems (Multichannel Systems) with integrated amplifier. Each MEA dish (6-well MEA 200/30 iR-Ti-rcr, Multichannel Systems) contains six wells, with 9 microelectrodes (TiN, 30 μm diameter) arranged over a 3×3 square grid at 200 μm inter-electrode distance in each MEA well (FIG. 1C). Recordings started 10 minutes after the MEA plates were placed to the headstage, which was set to 35° C., and the culture was supplied with continuous perfusion of 5% carbon dioxide balanced air (Airgas) throughout recording. For all time points earlier than 21 days in vitro (DIV21), MEA recordings lasted 15 minutes. At DIV21, MEA recordings lasted 30 minutes. All MEA recordings were performed in culture medium without perfusion. The electric signals were collected at 10 kHz with MCRack (Multichannel Systems; Version 4.4.2) and analyzed offline.
(§3) The software MCRack was used for spike detection. Raw MEA data was first high-pass filtered at 200 Hz to remove the low-frequency local field potentials. […] The average detection threshold is around 16 μV. Spike sorting was not performed, thus multiunit activity may contribute to the spikes detected from one electrode. Timestamps of spikes were stored and used for further analysis.
(§4) ASDR plot was generated using the method modified from Wagenaar et al. (2008) by summing the number of spikes detected per 200 ms from all electrodes in each well and plotted in time series. Clampfit 10.2 (Molecular Devices) was used for ASDR waveform analysis. 5% of individual ASDR's maximum peak value was calculated and set as the detecting threshold for identifying ASDR spike. […] ASDR spikes with ISIs below 10 seconds were grouped together and defined as network active period (NAP).
(§5) All drugs were dissolved in DMSO to make stock solutions before applying to neurons in culture media for pharmacological studies. Picrotoxin (PTX, stock solution of 100 mM) for blocking GABAA receptors (Tocris), Clonazepam (stock solution of 30 mM) as GABAA receptor positive modulator (Sigma), NBQX (stock solution of 10 mM) for blocking AMPA receptor (Abcam), and CX546 (stock solution of 100 mM) as AMPA receptor potentiator (Tocris) were used in doses as described herein. The maximum concentration of DMSO in the culture media with drug application was 0.08% volume.

[1] = tested on: Shank3 KO cortical networks; assay: MEA recordings of Shank3 KO cortical cultures (spike rate, NAP/NIP duration from ASDR plot); type: cell-based, mice; details: for NIP duration relative to WT level: 100 nM
Method: as §1, §2, §3, §4, §5

Compound: O=C1CN=C(c2ccccc2Cl)c2cc([N+](=O)[O-])ccc2N1 [CLP, Clonazepam]
- NIP duration, dose dependence (WT cortical networks; WT cortical networks DIV21): dose dependently elongated
- NIP duration, % longer (WT cortical networks; WT cortical networks DIV21, 100 nM, vs before treatment (basal)): 42±14%
- NIP duration, dose dependence ([1]; Shank3 KO networks DIV21): dose dependently increased
- NIP duration relative to WT level ([1]; Shank3 KO networks DIV21): normalized the shortened NIP in the Shank3 KO network to the level of WT; also recorded: normalized reduced NIP duration
- NIP duration relative to WT level ([1]; Shank3 KO networks DIV21, listed as clonazepam): normalized

Compound: NS(=O)(=O)c1cccc2c1c([N+](=O)[O-])cc1nc(O)c(O)nc12 [NBQX]
- NIP duration (enhanced by) (WT cortical networks; WT cortical networks DIV21, 1 μM): 560±85%

Compound: Picrotoxin [PTX]
- NIP duration compared to basal (reduced to) (WT cortical networks; WT cortical networks DIV21, 0.2 μM): 51±6%
- NIP duration compared to basal (reduced to) (WT cortical networks; WT cortical networks DIV21, 0.5 μM): 44±6%
- length of NAP (WT cortical networks; WT cortical networks DIV21, up to 0.5 μM): remained unchanged
- mean spike rate (WT cortical networks; WT cultures DIV21, 50 μM, vs before treatment): significantly increased
- mean spike rate ([1]; Shank3 KO cultures DIV21, 50 μM, vs before treatment): significantly increased

Compound: O=C(c1ccc2c(c1)OCCO2)N1CCCCC1 [CX546]
- NIP duration (decreased to) (WT cortical networks; WT cortical networks DIV21, 30 μM): 58±11%
- length of NAP (WT cortical networks; WT cortical networks DIV21, up to 30 μM): remained unchanged
- mean spike rate (reduced-firing) in spontaneous network ([1]; Shank3 KO cultures DIV21, 30 μM): rescued the reduced-firing; also recorded: rescued the hypoactive network
- mean spike rate (reduced-firing) in PTX-treated network ([1]; Shank3 KO cultures DIV21 with 50 μM PTX, 30 μM): effectively rescued the reduced-firing
- duration of NAP ([1]; Shank3 KO networks DIV21): did not significantly change
- duration of NIP ([1]; Shank3 KO networks DIV21, CX546 treatment): did not significantly change; also recorded: did not recover the network defect
